Where “and” joins values, the source holds several entries; their conditions need not be identical. Equal values may be shown once.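 In this assay, cells in 96-well plates receive the compound at five concentrations for 48 hours. Endpoints are linearly interpolated between the surrounding concentrations. At the GI50, growth is halved. TGI denotes the concentration required for complete inhibition of growth.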
Tests used:
Experiment in all cases: NCI tumour cell line growth inhibition, 48 h
DLD-1 colon = test system: DLD-1 colon
SNB-78 CNS = test system: SNB-78 CNS
DMS 273 small cell lung = test system: DMS 273 small cell lung
KM20L2 colon = test system: KM20L2 colon
XF 498 CNS = test system: XF 498 CNS
LXFL 529 NSCLC = test system: LXFL 529 NSCLC
RXF-631 renal = test system: RXF-631 renal
MDA-N = test system: MDA-N
P388/ADR leukemia = test system: P388/ADR leukemia
SN12K1 renal = test system: SN12K1 renal
HOP-18 NSCLC = test system: HOP-18 NSCLC

`CCC[CH2][Sn]1([CH2]CCC)[O]CC(CN2CCOCC2)[O]1` (stereo unspecified) was tested, and the GI50 (DLD-1 colon) was 4.46 µM, the TGI (DLD-1 colon) was 16.8 µM and the GI50 (SNB-78 CNS) was 2.12 µM. The TGI (SNB-78 CNS) was 6.36 µM, the GI50 (DMS 273 small cell lung) was 3.15 µM and the TGI (DMS 273 small cell lung) was 12 µM. The GI50 (KM20L2 colon) was 5.35 µM, the TGI (KM20L2 colon) was 19.1 µM and the GI50 (XF 498 CNS) was 1.62 µM. The TGI (XF 498 CNS) was 3.11 µM, the GI50 (LXFL 529 NSCLC) was 1.11 µM and the TGI (LXFL 529 NSCLC) was 2.47 µM. It also gave a GI50 (RXF-631 renal) of 1.41 µM and a TGI (RXF-631 renal) of 2.71 µM.

With `OCC1OC(n2cnc3c2NC=NC[C@H]3O)CC1O` (stereo partly specified) the GI50 (DLD-1 colon) was > 588 µM, the TGI (DLD-1 colon) was 500 µM and > 588 µM and the GI50 (SNB-78 CNS) was > 588 µM. For the same compound, the TGI (SNB-78 CNS) was 500 µM and > 588 µM, the TGI (MDA-N) was > 500 µM and the TGI (P388/ADR leukemia) was 448 µM. For the same compound, the TGI (SN12K1 renal) was 467 µM, the GI50 (DMS 273 small cell lung) was > 588 µM and the TGI (DMS 273 small cell lung) was 500 µM and > 588 µM. For the same compound, the GI50 (KM20L2 colon) was > 588 µM, the TGI (KM20L2 colon) was > 588 µM and the TGI (XF 498 CNS) was 498 µM. For the same compound, the GI50 (LXFL 529 NSCLC) was > 588 µM, the TGI (LXFL 529 NSCLC) was > 588 µM and the GI50 (HOP-18 NSCLC) was 284 µM and > 588 µM. For the same compound, the TGI (HOP-18 NSCLC) was 308 µM and > 588 µM, the GI50 (RXF-631 renal) was 158 µM and > 588 µM and the TGI (RXF-631 renal) was 500 µM and > 588 µM.

With `COc1ccc(C(=O)CC(=O)C(=O)Nc2ccc(C)c(C)c2)cc1` the TGI (DLD-1 colon) was > 100 µM, the TGI (SNB-78 CNS) was > 100 µM and the TGI (DMS 273 small cell lung) was > 100 µM. For the same compound, the TGI (KM20L2 colon) was > 100 µM, the TGI (LXFL 529 NSCLC) was > 100 µM and the TGI (HOP-18 NSCLC) was > 100 µM. For the same compound, the TGI (RXF-631 renal) was > 100 µM.

`CCCC(=O)Nc1ccc2c(c1)CN1C(=O)c3ccccc3C1=N2` was tested, and the TGI (MDA-N) was > 100 µM.

`COc1ccc(NC(=O)CC(=O)N2N=C(N(CCC#N)c3cccc(C)c3)CC2c2ccccc2)cc1` (stereo unspecified) was tested, and the TGI (DLD-1 colon) was > 100 µM, the TGI (SNB-78 CNS) was > 100 µM and the TGI (DMS 273 small cell lung) was > 100 µM. The TGI (KM20L2 colon) was > 100 µM, the TGI (LXFL 529 NSCLC) was > 100 µM and the TGI (HOP-18 NSCLC) was > 100 µM.

`O=C1OC(c2ccccc2)=N/C1=C\c1cc(Cl)ccc1Cl` was tested, and the TGI (DLD-1 colon) was > 100 µM, the TGI (SNB-78 CNS) was > 100 µM and the TGI (KM20L2 colon) was > 100 µM. The TGI (LXFL 529 NSCLC) was 86 µM, the TGI (HOP-18 NSCLC) was > 100 µM and the TGI (RXF-631 renal) was > 100 µM.

`COC(=O)C(Cc1ccccc1)NC(=O)Cn1ccnc1[N+](=O)[O-]` (stereo unspecified) was tested, and the TGI (DMS 273 small cell lung) was > 100 µM, the TGI (KM20L2 colon) was > 100 µM and the TGI (XF 498 CNS) was > 100 µM. For the same compound, the TGI (LXFL 529 NSCLC) was > 100 µM, the TGI (HOP-18 NSCLC) was > 100 µM and the TGI (RXF-631 renal) was > 100 µM.

For `O=C(c1nc2ccc(Cl)cc2[nH]c1=O)C(O)c1ccc2c(c1)OCO2` (stereo unspecified), the TGI (DLD-1 colon) was > 100 µM, the TGI (DMS 273 small cell lung) was > 100 µM and the TGI (KM20L2 colon) was > 100 µM. The TGI (XF 498 CNS) was > 100 µM, the TGI (LXFL 529 NSCLC) was > 100 µM and the TGI (HOP-18 NSCLC) was > 100 µM. For the same compound, the TGI (RXF-631 renal) was > 100 µM.

In the case of `CC(C)NC(=O)OCc1c(COC(=O)NC(C)C)c(-c2ccc(Cl)c(Cl)c2)n2c1CCC2`, the TGI (DLD-1 colon) is reported as > 72.3 µM, the TGI (SNB-78 CNS) is reported as 41.9 µM and the TGI (P388/ADR leukemia) is reported as > 100 µM. For the same compound, the TGI (SN12K1 renal) was > 100 µM, the TGI (DMS 273 small cell lung) was > 67 µM and the TGI (KM20L2 colon) was 58.7 µM. The TGI (XF 498 CNS) was > 62.1 µM, the TGI (LXFL 529 NSCLC) was 16.3 µM and the TGI (HOP-18 NSCLC) was > 83.9 µM.

`Cc1ccc(C(=O)C#Cc2c[nH]c(=O)[nH]c2=O)cc1` showed a TGI (DLD-1 colon) of 22.1 µM, a TGI (SNB-78 CNS) of 28.5 µM and a TGI (DMS 273 small cell lung) of 38.6 µM. It also gave a TGI (HOP-18 NSCLC) of 32.6 µM.

In the case of `CCCCCCCCCCCCCCCCCC(=O)OCC(COC1OC(CS(=O)(=O)O)C(O)C(O)C1O)OC(=O)CCCCCCCCCCCCCCCCC` (stereo unspecified), the TGI (MDA-N) is reported as > 100 µM.

In the case of `COC1=C2C[C@@H](C)C[C@@H](OC)[C@@H](O)[C@H](C)/C=C(\C)[C@@H](OC(N)=O)[C@H](OC)/C=C\C=C(/C)C(=O)NC(=CC1=O)C2=O`, the GI50 (DLD-1 colon) is reported as 0.131 µM, the TGI (DLD-1 colon) is reported as 9.63 µM and 3.15 µM and the GI50 (SNB-78 CNS) is reported as 0.859 µM. For the same compound, the TGI (SNB-78 CNS) was 11.7 µM and 7.42 µM, the GI50 (MDA-N) was 0.00577 µM and the TGI (MDA-N) was 8.51 µM. The TGI (P388/ADR leukemia) was 1.47 µM, the TGI (SN12K1 renal) was 2.51 µM and the TGI (DMS 273 small cell lung) was 2.05 µM. For the same compound, the GI50 (KM20L2 colon) was < 0.0347 µM, the TGI (KM20L2 colon) was 0.99 µM and 0.886 µM and the GI50 (XF 498 CNS) was 0.0356 µM. For the same compound, the TGI (XF 498 CNS) was 1.13 µM and 0.853 µM, the TGI (LXFL 529 NSCLC) was 14.1 µM and the GI50 (HOP-18 NSCLC) was 0.0288 µM. The TGI (HOP-18 NSCLC) was 4.92 µM and 1.28 µM and the TGI (RXF-631 renal) was 3.35 µM.

With `N#CCCSC(=S)C1CCCC1=N` (stereo unspecified) the TGI (MDA-N) was > 100 µM.

In the case of `COc1ccc(C(=O)C(C(=O)C(=O)NC2C3CC4CC(C3)CC2C4)c2ccc(OC)cc2)cc1` (stereo unspecified), the TGI (DLD-1 colon) is reported as > 100 µM, the TGI (SNB-78 CNS) is reported as > 100 µM and the TGI (DMS 273 small cell lung) is reported as > 100 µM. The TGI (KM20L2 colon) was > 100 µM, the TGI (LXFL 529 NSCLC) was > 100 µM and the TGI (HOP-18 NSCLC) was > 100 µM.

For `COC(=O)CS(=O)c1ccccc1` (stereo unspecified), the TGI (DLD-1 colon) was > 100 µM, the TGI (SNB-78 CNS) was > 100 µM and the TGI (DMS 273 small cell lung) was 84.4 µM. For the same compound, the TGI (XF 498 CNS) was > 100 µM and the TGI (LXFL 529 NSCLC) was > 100 µM.

With `O=NN/C(=C1\Nc2ccc([N+](=O)[O-])cc2NC1=O)C(O)c1ccc([N+](=O)[O-])cc1` (stereo unspecified) the TGI (DLD-1 colon) was > 100 µM, the TGI (SNB-78 CNS) was > 100 µM and the TGI (DMS 273 small cell lung) was > 100 µM. For the same compound, the TGI (KM20L2 colon) was > 100 µM, the TGI (XF 498 CNS) was > 100 µM and the TGI (LXFL 529 NSCLC) was > 100 µM. For the same compound, the TGI (RXF-631 renal) was > 100 µM.

`CN(C)C1=NC2=S(SC(Nc3ccccc3)=N2)S1` (stereo unspecified) was tested, and the TGI (DLD-1 colon) was > 100 µM, the TGI (SNB-78 CNS) was > 100 µM and the TGI (DMS 273 small cell lung) was 66 µM. The TGI (KM20L2 colon) was > 100 µM, the TGI (XF 498 CNS) was 50.5 µM and the TGI (LXFL 529 NSCLC) was 62.9 µM. The TGI (HOP-18 NSCLC) was 91.4 µM and the TGI (RXF-631 renal) was > 100 µM.

For `Cc1cc(=O)oc2c(OS(C)(=O)=O)c(OS(C)(=O)=O)ccc12`, the TGI (MDA-N) was > 100 µM.

For `O=C(O)CP(=O)(O)O`, the TGI (MDA-N) was > 100 µM.

For `CCCc1nc(NC#N)nc(C(=O)NC23CC4CC(CC(C4)C2)C3)c1C`, the TGI (DLD-1 colon) was > 100 µM, the TGI (SNB-78 CNS) was > 100 µM and the TGI (DMS 273 small cell lung) was > 100 µM. For the same compound, the TGI (KM20L2 colon) was > 100 µM, the TGI (LXFL 529 NSCLC) was > 100 µM and the TGI (HOP-18 NSCLC) was > 100 µM.
